These results are taken from patent US8003673B2, “Daptomycin for the treatment of biofilm and catheter salvage” (Cubist Pharmaceuticals, Inc., priority 2006, dated 2011).

The subject of experiment [1] is Staphylococcus aureus. The experiment is described as follows: Susceptibility (MIC) of S. aureus #42 control strain. In kind it is cell-based.
The subject of experiment [2] is Staphylococcus epidermidis. The experiment can be described thus: Susceptibility (MIC) of S. epidermidis isolates used in CVC studies.
Experiment [3] relates to S. epidermidis CVC infection. The experiment is described as follows: Rat model of CVC infection, antibiotic lock therapy. In kind it is in vivo, Sprague Dawley rats. Particulars: for Metastatic infection after lock therapy: lock therapy combined with SC dosing. On the procedure:
(§1) Male Sprague Dawley rats (˜250 g) with catheterized jugular veins were used in these studies. Rat catheters (polyurethane tubing, 0.025 inch internal diameter) were inoculated with a culture of S. epidermidis at 5×10^8 CFU/ml. The total volume of the catheters is approximately 40 μl. The catheters were flushed with heparinized saline 1 hour after inoculation, and were maintained by daily flushes. The catheter infection was monitored by daily blood draws that were plated and quantified.
(§2) Daptomycin, vancomycin and nafcillin were used as therapy. Two different dosing regimes were used. The first mimicked clinical infusion with daptomycin administered at 5 mg/ml in the line for 30 minutes once daily compared to vancomycin at 5 mg/ml for 60 minutes twice daily, for a total of 4 days. The second regime simulated antibiotic lock therapy with an 18 hour exposure of daptomycin or vancomycin at 5 mg/ml, followed by a heparinized saline flush, daily for 3 days. In both regimes, the animals received parenteral doses of the appropriate antibiotic by subcutaneous route to simulate total body exposure (as it was not possible to administer the correct dosages through the line at 5 mg/ml). Most trials involved a therapy period, followed by a period of no antibiotic therapy to monitor for resurgence of infection due to surviving bacterial colonies.
(§3) Infection levels were monitored by daily blood draws through the infected catheter. For the terminal harvest, a final blood draw was taken and then the flushed catheter was harvested, and analyzed for surviving bacteria by sonication, vortexing, and plating. The vena cava, heart, lung, kidney, and spleen were assayed as potential metastatic infection sites by aseptic harvest, homogenization, and plating.

Experiment [4] relates to Methicillin-resistant coagulate negative staphylococci biofilms. In kind it is cell-based, coagulase negative staphylococci (S. epidermidis isolates). The protocol:
Methicillin-resistant coagulate negative staphylococci biofilms were grown to approximately 10^5 cells per cm^2 for 24 h in glass test tubes, planktonic bacteria rinsed away and Mueller Hinton broth (calcium supplemented to […] in daptomycin tests) containing antimicrobials added to the tubes. The concentrations of antimicrobials studied were two-fold dilutions from 64 to 1 μg/mL of daptomycin, rifampin, or daptomycin plus 0.5 μg/mL rifampin. The tests were incubated overnight in room air at 37° C. The cell density in rinsed biofilms was determined prior to addition of antimicrobials and after incubation. The change in bacterial density after incubation with antimicrobials was determined, and the results were expressed as the lowest antimicrobial concentration that killed 99.90% of biofilm bacteria. Bacteria recovered from tests containing rifampin were tested for rifampin susceptibility.

Experiment [5] has as its system S. epidermidis CVC infection. The experiment can be described thus: Rat model of CVC infection, infusion therapy. In kind it is in vivo, Sprague Dawley rats. On the procedure:
as §1, §2, §3

For experiment [6], the system named is stationary phase S. epidermidis. The experiment is described as follows: In vitro model of stationary phase bacteria (kill kinetics). In kind it is cell-based. The settings on record: for Cidal activity against stationary phase culture: through 24 hours. On the procedure:
The impact of cidal activity of antibacterial compounds on stationary phase bacteria was assayed. Cultures of S. epidermidis and S. aureus were grown to stationary phase (>1×10^9 and centrifuged, washed 2×, and then resuspended into saline or lactated Ringer's solution. The cultures were treated with either daptomycin or vancomycin at 5 mg/ml and the decrease in viable bacteria were measured through 24 hours to determine the kill kinetics.

Experiment [7] has as its system S. epidermidis biofilm in catheter. The experiment can be described thus: Histopathology of CVC biofilms in the rat model. In kind it is in vivo, Sprague Dawley rats. The protocol: The nature of the CVC infection and resulting biofilms in the catheter was determined through histopathology. The data on histopathology can be summarized as follows: • 1. Eight days after implantation, the rat central venous catheter model develops focal biofilms with or without bacterial colonies in the catheter's inner luminal surfaces. At this time point, the thickness of the biofilm varies between 7 to 15 microns. • 2. After 12 days of implantation, the fibrils making up the inner luminal surface biofilm appear to be denser and more organized, and the biofilm layer is slightly thicker (up to 25 microns). • 3. In the saline negative controls, bacterial colonies were present in the biofilm, and identified as Gram positive cocci. • 4. […] However, cocci-like, Gram positive individual round structures were noted. • 5.
At day 12 post infection in untreated rats, as in the previous time point, biofilms tended to be present in the inner luminal surfaces of the indwelling catheter, 5-25 microns thick, and contained variable numbers of basophilic granular bacterial colonies (confirmed by Gram stain). However, in contrast to the previous time point, focal portions of the luminal protein cast appeared to be more organized and contained numerous bluish bacterial colonies. See FIG. 10 showing the biofilm appearance at day 12 post infection. […] Rat A1 served as negative control and received saline (2 mL/kg SC+saline via catheter); Rat A6 received low-dose daptomycin (10 mg/kg SC+5 mg/mL via catheter); Rat A12 received high-dose daptomycin (33 mg/kg SC+5 mg/mL via catheter); and Rat A17 received vancomycin (50 mg/kg SC+5 mg/mL via catheter). Tissues from the four rats were evaluated. FIG. 11, below, is a composite of the findings for all four rats.
FIG. 11 provides histopathological evidence of daptomycin and vancomycin efficacy after 4 days of infusion therapy. In FIG. 11, from left to right, the images illustrate the CVC tissues from rats A1, A6, A12, and A17, respectively. The upper images are all H&E-stained and the bottom images are all Gram-stained. […] These round structures surrounded or encircled cell membranes.

Where [8] appears, read: strain 42 Staphylococcus aureus, read-out: MIC.
The mark [9] stands for this setting: strain 119 Staphylococcus epidermidis.
Where [10] appears, read: strain 1315 Staphylococcus epidermidis.
The mark [11] stands for this setting: strain 1316 Staphylococcus epidermidis.
[12] abbreviates: strain 1317 Staphylococcus epidermidis.
Setting [13] is: strain 1318 Staphylococcus epidermidis.
Setting [14] is: strain 1319 Staphylococcus epidermidis.
Where [15] appears, read: strain 1320 Staphylococcus epidermidis.
Setting [16] is: following 7 days of antibiotic-free heparin flushes.
The mark [17] stands for this setting: Antimicrobial Concentration ≧64.
[18] abbreviates: day 15, after 6 days of antibiotic-free heparin flushes following infusion therapy.

≈ marks a conversion by molar mass, not a printed value. Where two headings read alike, the source gives them in different places.

Usually MIC stands for the lowest concentration that inhibits growth of the organism. With `CC(=O)NC[C@H]1CN(c2ccc(N3CCOCC3)c(F)c2)C(=O)O1` [Linezolid], the minimal inhibitory concentration (MIC) in experiment [1] (setting [8]) amounted to 2 µg/mL (≈ 5.93 µM); in experiment [2] (setting [9]), 1 µg/mL (≈ 2.96 µM); in experiment [2] (setting [10]), 0.5 µg/mL (≈ 1.48 µM); in experiment [2] (setting [11]), 1 µg/mL (≈ 2.96 µM); in experiment [2] (setting [12]) it was 0.5 µg/mL (≈ 1.48 µM); in experiment [2] (setting [13]), 1 µg/mL (≈ 2.96 µM). Besides, the MIC in experiment [2] (setting [14]) came out at 0.5 µg/mL (≈ 1.48 µM); in experiment [2] (setting [15]), 1 µg/mL (≈ 2.96 µM).

In the case of `CCOc1ccc2ccccc2c1C(=O)N[C@@H]1C(=O)N2[C@@H]1SC(C)(C)[C@@H]2C(=O)O` [Nafcillin], the MIC in experiment [1] (setting [8]) is 0.125 µg/mL (≈ 0.302 µM); in experiment [2] (setting [9]), 0.031 µg/mL (≈ 0.0748 µM); in experiment [2] (setting [10]), 2 µg/mL (≈ 4.83 µM); in experiment [2] (setting [11]), 16 µg/mL (≈ 38.6 µM); in experiment [2] (setting [12]), 0.125 µg/mL (≈ 0.302 µM); in experiment [2] (setting [13]) it was more than 16 µg/mL. For the same compound, the MIC is 16 µg/mL (≈ 38.6 µM) in experiment [2] (setting [14]) and more than 16 µg/mL in experiment [2] (setting [15]). The “Animals with positive catheter at harvest after lock therapy” value in experiment [3] (setting [16]) is given as “all”. In addition, the “Metastatic infection after lock therapy” value in experiment [3] is “A significant proportion of nafcillin-treated animals showed positive metastatic infections at multiple sites”.

`CO[C@H]1/C=C/O[C@@]2(C)Oc3c(C)c(O)c4c(O)c(c(/C=N/N5CCN(C)CC5)c(O)c4c3C2=O)NC(=O)/C(C)=C\C=C\[C@H](C)[C@H](O)[C@@H](C)[C@@H](O)[C@@H](C)[C@H](OC(C)=O)[C@@H]1C` [Rifampicin]: the MIC was less than 0.004 µg/mL in experiment [1] (setting [8]); 0.008 µg/mL (≈ 0.00972 µM) in experiment [2] (setting [9]); less than 0.004 µg/mL in experiment [2] (setting [10]); 0.008 µg/mL (≈ 0.00972 µM) in experiment [2] (setting [11]); more than 4 µg/mL in experiment [2] (setting [12]); less than 0.004 µg/mL in experiment [2] (setting [14]). Besides, the MIC in experiment [2] (setting [15]) was 0.008 µg/mL (≈ 0.00972 µM). Also, the “# of isolates (lowest concentration that killed 99.90% of biofilm bacteria)” value is 1 (1) in experiment [4] (Antimicrobial Concentration 1); 0 in experiment [4] (Antimicrobial Concentration 2); 1 in experiment [4] (Antimicrobial Concentration 4); 2 in experiment [4] (Antimicrobial Concentration 8); 2 in experiment [4] (Antimicrobial Concentration 16); 0 in experiment [4] (Antimicrobial Concentration 32). Further, in experiment [4] (setting [17]), the “# of isolates (lowest concentration that killed 99.90% of biofilm bacteria)” value came to 21. In addition, the “(N) number of rifampin susceptible isolates that became rifampin resistant during test” value in experiment [4] (Antimicrobial Concentration 1) is reported as 1 (1); in experiment [4] (Antimicrobial Concentration 16), 1; in experiment [4] (setting [17]), 7. In addition, the “Mean log10 reduction” value in experiment [4] (Antimicrobial Concentration 1) was found to be 3.5 log10; in experiment [4] (Antimicrobial Concentration 4), 3.2 log10; in experiment [4] (Antimicrobial Concentration 8), 3.4 log10; in experiment [4] (Antimicrobial Concentration 16), 3.0 log10; in experiment [4] (setting [17]) it was 1.4 log10.

With `CN[C@H](CC(C)C)C(=O)N[C@H]1C(=O)N[C@@H](CC(N)=O)C(=O)N[C@H]2C(=O)N[C@H]3C(=O)N[C@H](C(=O)N[C@H](C(=O)O)c4cc(O)cc(O)c4-c4cc3ccc4O)[C@H](O)c3ccc(c(Cl)c3)Oc3cc2cc(c3O[C@@H]2O[C@H](CO)[C@@H](O)[C@H](O)[C@H]2O[C@H]2C[C@](C)(N)[C@H](O)[C@H](C)O2)Oc2ccc(cc2Cl)[C@H]1O` [Vancomycin], the MIC in experiment [1] (Staphylococcus aureus) stood at 0.25 µg/mL (≈ 0.173 µM); in experiment [2] (setting [9]) it was 1 µg/mL (≈ 0.69 µM); in experiment [2] (setting [10]), 1 µg/mL (≈ 0.69 µM); in experiment [2] (setting [11]) it was 1 µg/mL (≈ 0.69 µM); in experiment [2] (setting [12]) it was 1 µg/mL (≈ 0.69 µM); in experiment [2] (setting [13]), 2 µg/mL (≈ 1.38 µM). The minimal inhibitory concentration (MIC) in experiment [2] (setting [14]) and in experiment [2] (setting [15]) was 1 µg/mL (≈ 0.69 µM) throughout. The “Overall outcome of lock therapy” value in experiment [3] (18 hour lock at 5 mg/ml) is on record as “curative in lock therapy”. In experiment [3] (setting [16]), the “Animals with positive blood draws after lock therapy” value is given as “None”. In experiment [3] (setting [16]), the “Animals with positive catheter at harvest after lock therapy” value is on record as “None”. In experiment [3], the “Metastatic infection after lock therapy” value was “cleared and prevented reemergence of metastatic infection”. Further, the “Catheter infection by CVC blood draw after infusion therapy” value in experiment [5] (5 mg/ml in line, daptomycin once a day, vancomycin twice a day, after three days of therapy (day 8)) is reported as “reduced most catheter infections to a non-detectable level”. Moreover, the “Relative efficacy in the rat CVC model” value in experiment [5] (comparison between treatments) was “equally effective (to daptomycin in Ringer's)”. In addition, the “Animals with harvested catheter positive for S. epidermidis CFUs” value in experiment [5] (setting [18]) is recorded as 2/6. Further, the “Animals with positive blood draws through the catheter” value in experiment [5] (setting [18]) is 0/6. In experiment [5] (doses days 5-8, daptomycin 30 minute once a day, vancomycin 60 min twice a day), the “Clearing of blood draw cultures during infusion therapy” value is given as “negative blood draw cultures by day 8”. Also, the “Metastatic infection after infusion therapy (vena cava, heart, lung, kidney, spleen)” value in experiment [5] (infusion therapy, same groups as FIG. 3) was “very little metastatic infection at any site”. Besides, the “Cidal activity against stationary phase culture” value in experiment [6] (5 mg/ml in lactated Ringer's) is listed as “no cidal activity”; in experiment [6] (5 mg/ml in lactated Ringer's, listed as vancomycin), “not cidal”; in experiment [6] (5 mg/ml in saline), “neither daptomycin nor vancomycin had cidal activity”. For the same compound, in experiment [6] (in vitro, medium not stated), the “Cidal activity against stationary phase S. epidermidis (conclusion)” value is listed as “not cidal”. For the same compound, the “Biofilm formation and Gram positive bacterial colonies in the biofilm (histopathology summary)” value in experiment [7] (5 mg/mL via the catheter) was “did not prevent biofilm formation, or completely the growth and presence of Gram positive bacterial colonies in the biofilm”. The “Bacterial colonies in biofilm, histopathology of single rats” value in experiment [7] (after 4 days of infusion therapy, rat A12 daptomycin 33 mg/kg SC + 5 mg/mL via catheter, rat A17 vancomycin 50 mg/kg SC + 5 mg/mL via catheter) was “Biofilms containing true bacterial colonies”.
